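48-hour exposure; five concentrations; linearly interpolated endpoints. TGI marks complete inhibition of growth.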
Columns and labels:
Experiment in all cases: growth of human tumour cells (NCI), 48 h
OVCAR-4 ovarian = tested on: OVCAR-4 ovarian
K-562 leukemia = tested on: K-562 leukemia
NCI-H522 lung = tested on: NCI-H522 lung
CAKI-1 renal = tested on: CAKI-1 renal
HCT-15 colon = tested on: HCT-15 colon
DU-145 prostate = tested on: DU-145 prostate
KM12 colon = tested on: KM12 colon
NCI/ADR-RES ovarian = tested on: NCI/ADR-RES ovarian
SK-MEL-5 melanoma = tested on: SK-MEL-5 melanoma
SK-OV-3 ovarian = tested on: SK-OV-3 ovarian
SF-295 CNS = tested on: SF-295 CNS
SK-MEL-2 melanoma = tested on: SK-MEL-2 melanoma
BT-549 breast = tested on: BT-549 breast
OVCAR-8 ovarian = tested on: OVCAR-8 ovarian
HOP-62 NSCLC = tested on: HOP-62 NSCLC
A498 renal = tested on: A498 renal
SW-620 colon = tested on: SW-620 colon
SF-539 CNS = tested on: SF-539 CNS
MCF7 breast = tested on: MCF7 breast
M14 melanoma = tested on: M14 melanoma

SMILES	TGI (OVCAR-4 ovarian) [µM]	TGI (K-562 leukemia) [µM]	TGI (NCI-H522 lung) [µM]	TGI (CAKI-1 renal) [µM]	TGI (HCT-15 colon) [µM]	TGI (DU-145 prostate) [µM]	TGI (KM12 colon) [µM]	TGI (NCI/ADR-RES ovarian) [µM]	TGI (SK-MEL-5 melanoma) [µM]	TGI (SK-OV-3 ovarian) [µM]	TGI (SF-295 CNS) [µM]	TGI (SK-MEL-2 melanoma) [µM]	TGI (BT-549 breast) [µM]	TGI (OVCAR-8 ovarian) [µM]	TGI (HOP-62 NSCLC) [µM]	TGI (A498 renal) [µM]	TGI (SW-620 colon) [µM]	TGI (SF-539 CNS) [µM]	TGI (MCF7 breast) [µM]	TGI (M14 melanoma) [µM]
CCOC(=O)/C=C/[C@H](O[Si](CC)(CC)CC)C(C)(C)C	> 100	> 100	> 100	> 100	> 100	> 100	> 100	> 100	> 100	> 100	> 100	80.6	> 100	> 100	> 100	> 100	> 100	> 100	66.9	–
COc1ccc(-c2csc(Cc3nc4ccccc4c(=O)n3-c3ccc(Cl)cc3)n2)cc1	> 100	41.8	> 100	> 100	97.6	> 100	> 100	> 100	41.1	> 100	> 100	35.3	> 100	> 100	> 100	> 100	> 100	–	> 100	65.1
Nc1nc(Cl)c(N)c(NCC2(CO)CCCC2)n1	> 100	> 100	> 100	> 100	> 100	> 100	> 100	> 100	> 100	24.2	> 100	> 100	> 100	> 100	> 100	> 100	> 100	> 100	> 100	–
O=C1c2cccc3cccc(c23)C(=O)N1CCCNCCCNCCCCNCCCNCCCN1C(=O)c2cccc3cccc(c23)C1=O	19.1	16.5	32.6	29.6	30.9	14	13.9	46.8	41.1	32.1	24.4	16.8	15.1	40	27.3	25.2	14.9	23.7	1.61	16.2
O=C(NCCCl)N(O)C(=O)Nc1ccccc1	> 100	> 100	> 100	> 100	> 100	> 100	> 100	> 100	> 100	> 100	> 100	> 100	> 100	> 100	> 100	> 100	> 100	> 100	> 100	> 100
O=C(/N=C/c1c(O)c2ccccc2oc1=O)Oc1ccccc1	65.8	> 100	> 100	94.6	> 100	> 100	> 100	95.8	> 100	66	> 100	36.1	81	91.9	43.6	46.2	> 100	42.2	> 100	> 100
CN1C(=O)c2ccccc2OC12C=Cc1ccc(O)cc1O2 (stereo unspecified)	96.9	> 100	> 100	58	> 100	69.7	77.5	40.4	37.6	53.5	> 100	56.1	85.5	37.4	73.7	53.4	> 100	–	> 100	45.3
CC(C)CC(NC(=O)C(CI)Cc1ccccc1)C(=O)Nc1ccccc1 (stereo unspecified)	> 100	> 100	> 100	> 100	> 100	> 100	> 100	> 100	> 100	> 100	> 100	> 100	57	> 100	–	> 100	> 100	> 100	> 100	> 100
O=C(N[C@@H](c1ccccc1)[C@@H](O)C(=O)OCc1ccc([N+](=O)[O-])cc1)c1ccccc1	> 100	> 100	> 100	> 100	> 100	> 100	> 100	> 100	> 100	> 100	–	> 100	> 100	> 100	> 100	> 100	> 100	> 100	> 100	–
Nc1nc(NCC2(CO)CC2)cc(=O)[nH]1	> 100	> 100	> 100	> 100	> 100	> 100	> 100	> 100	> 100	> 100	> 100	> 100	> 100	> 100	> 100	> 100	> 100	–	> 100	> 100
N#Cc1[nH]c(=S)[nH]c1N	> 100	> 100	> 100	> 100	> 100	> 100	–	> 100	> 100	> 100	> 100	> 100	> 100	> 100	> 100	> 100	> 100	> 100	> 100	–
C=C(C(=O)O)[C@@H]1C[C@@H](OC(C)=O)[C@]2(C)CC/C=C(\C)CCC[C@H](C)[C@H](O)[C@@H]1O2	> 100	> 100	48.4	> 100	> 100	> 100	> 100	> 100	> 100	> 100	> 100	> 100	> 100	> 100	–	> 100	> 100	35.7	> 100	> 100
O=C(c1ccccc1)c1c(-c2ccccc2)n(-c2ccccc2)[nH]c(=O)c1=O	> 100	81.4	38.3	> 100	> 100	> 100	> 100	> 100	> 100	> 100	> 100	65.7	91.7	> 100	> 100	> 100	–	46.8	> 100	> 100
CCCCSC1=N/C(=C\c2ccco2)C(Cl)=N1	> 100	–	> 100	> 100	> 100	> 100	> 100	> 100	> 100	> 100	> 100	> 100	> 100	> 100	> 100	> 100	> 100	–	> 100	> 100
CCCCCC(=O)CCCCCCCC(O)CC(=O)OCC (stereo unspecified)	–	> 100	> 100	> 100	> 100	> 100	> 100	> 100	> 100	–	–	–	> 100	> 100	> 100	> 100	> 100	> 100	> 100	> 100
O=S1(=O)Cc2ccc3c4c2-c2c(ccc5ccc(c-4c25)CS(=O)(=O)C3)C1	> 100	> 100	> 100	–	> 100	> 100	> 100	> 100	–	> 100	> 100	> 100	> 100	> 100	> 100	> 100	> 100	> 100	> 100	> 100
CN(C)c1ccc(/C=N\NC(=O)Nc2cccc3ccccc23)cc1	40.4	–	14	27.9	7.23	30.9	> 100	78.8	18.6	–	–	35.7	72.4	> 100	33.1	64.8	> 100	21.5	33	> 100
Cc1nn(C(=O)c2ccc(Cl)cc2)c2c1C(/C=C/c1ccccc1)SC(N)=N2 (stereo unspecified)	> 10	> 10	> 10	> 10	> 10	> 10	> 10	> 10	> 10	> 10	> 10	> 10	> 10	> 10	> 10	–	> 10	> 10	> 10	> 10
O=c1cc(CO)oc(C(O)c2ccccc2)c1O (stereo unspecified)	> 100	–	> 100	> 100	> 100	> 100	> 100	> 100	> 100	> 100	> 100	> 100	> 100	> 100	> 100	> 100	> 100	> 100	> 100	> 100
S=C1SSC2N=CC=CC12 (stereo unspecified)	34.2	> 100	> 100	34.3	> 100	> 100	33	> 100	> 100	> 100	> 100	> 100	> 100	> 100	–	> 100	> 100	> 100	> 100	> 100
CC(C)N(C(=O)C1(O)c2ccccc2C=Cc2ccccc21)C(C)C	52	–	25.3	57.7	44.6	33.1	49.7	35.4	29.8	53.9	33.7	30.7	34.6	30.5	35.6	29.8	31.3	33.4	31	40.1
CC1=NC(=Cc2cc(Br)cc(Br)c2)C(=O)N1n1c(-c2ccccc2)nc2ccccc2c1=O	> 100	> 100	> 100	> 100	> 100	> 100	> 100	> 100	> 100	> 100	> 100	> 100	> 100	> 100	> 100	–	> 100	> 100	> 100	> 100
Cn1c(=O)oc2cc(C(O)CN3CCN(Cc4ccccn4)CC3)c(Cl)cc21 (stereo unspecified)	> 100	> 100	> 100	> 100	> 100	> 100	> 100	> 100	–	> 100	> 100	–	> 100	> 100	> 100	> 100	> 100	> 100	> 100	> 100
Cc1cc(C2CC(O)C(CO)O2)c(F)cc1F (stereo unspecified)	> 100	> 100	> 100	> 100	> 100	> 100	> 100	> 100	–	> 100	> 100	–	> 100	> 100	> 100	> 100	> 100	> 100	> 100	> 100
O=C1c2cccc3cccc(c23)C2NCCCN12 (stereo unspecified)	> 100	> 100	80.4	> 100	> 100	> 100	> 100	> 100	> 100	> 100	> 100	–	> 100	> 100	> 100	> 100	> 100	–	> 100	> 100

Reference: PubChem BioAssay (NCI)
